Patent US20240261426A1, “CONJUGATES COMPRISING PHOSPHOANTIGENS AND THEIR USE IN THERAPY” (BYONDIS B.V., priority 2021, published 2024)

Experiments:
[1] = system: Vδ2 γδ T-cells; assay: Functional assay with pretreated CD20 positive B-cell lines (CD107a read-out); type: cell-based, human; conditions: all tested B-cell lines (Raji, HG-3, MEC-1, SU-DHL-4, SU-DHL-8)
[2] = system: Vδ2 γδ T-cells; assay: Functional assay with pretreated HER2-positive cell lines; type: cell-based, human; conditions: pretreated HCT-116 cells (low HER2)
[3] = system: Vδ2 γδ T-cells; assay: Functional assay with pretreated MOLM-13 or Raji cells, different DAR (CD107a); type: cell-based, human
Method: The functional assay was performed as disclosed in Example 23, with the exception that Raji and MOLM-13 cells were pretreated for 16 or 40 hours with antibodies/ADCs/controls (Table 13). Furthermore, CD107a degranulation levels were determined only and not IFNγ expression levels. Thus, on the third experimental days, cells were directly analyzed on the BD FACSymphony A3 Cell analyzer (BD Biosciences, San Jose, CA, USA), before incubation with BD Perm/wash. […] EC50 values were calculated in GraphPad Prism as the concentration in μg/mL that gives a response half way between bottom and top of the curve. […] Raji cells were cultured as described in Example 23. The CD123-positive acute monocytic leukemia cell line MOLM-13 (DSMZ, ACC 554, the German collection of Microorganisms and cell cultures GmbH (Leibniz Institute, Germany)) was cultured in CGM and was maintained at 37° C. in a humidified incubator containing 5% CO2 and sub-cultured twice a week.

[4] = system: Vδ2 γδ T-cells; assay: Functional assay: Vδ2 γδ T-cell activation (CD107a, IFNγ, TNFα) after co-culture of PBMCs with pretreated Raji cells; type: cell-based, human; conditions: for IFNγ production and degranulation of Vδ2 γδ T-cells compared to pretreatment with HMBPP: pre-treated Raji cells; for IFNγ production and degranulation (CD107a) of Vδ2 γδ T-cells, in words: pretreated Raji cells co-cultured with PBMCs
Method: (§1) To determine (unconjugated) phosphoantigen prodrug activity, Raji target cells were pre-incubated with XC1 and XD1, prior to co-culture with peripheral blood mononuclear cells (PBMCs) containing effector cells. Selective gammadelta T-cell activation was studied in vitro after co-culture of PBMCs with tumor cells (from the CD20-positive Burkitt's Lymphoma human tumor cell line Raji) pretreated with phosphoantigen HMBPP, phosphoantigen prodrugs XC1, XD1, or the conjugates listed in Table 1.
(§2) The CD20-positive Burkitt's Lymphoma human tumor cell line Raji (DSMZ, the German collection of Microorganisms and cell cultures GmbH (Leibniz Institute, Germany)) was used for in vitro experiments. Raji cells were cultured in complete growth medium (CGM): RPMI-1640 (Lonza, Walkersville, MD, USA) supplemented with 10% Heat-inactivated (HI) Fetal Bovine Serum (FBS) (Gibco-Life Technologies; Carlsbad, CA) and 80 U/mL Penicillin-Streptomycin solution (Lonza Group Ltd, Basel Switzerland). Raji cells were maintained at 37° C. in a humidified incubator containing 5% CO2 and sub-cultured twice a week.
For stimulation with conjugates according to the invention (ADCs), unconjugated phosphoantigen prodrugs and HMBPP, Raji cells were harvested, diluted to a concentration of 5×10^6 cells/mL and 50 μL (equivalent to 250.000 cells/well) of this cell suspension was seeded into a 96-well plate. A 2-times concentrated, 10-fold serial dilution of the prodrugs and ADC was prepared in CGM. Plated Raji cells were incubated overnight (O/N) in a humidified incubator with 5% CO2 at 37° C. with 50 μL/well of the serially-diluted compounds.
The following day, the 96 well plate with Raji cells and compounds (ADCs, unconjugated phosphoantigen prodrugs or HMBPP) was washed by adding 100 μL/well CGM, centrifugation at 300×g for 3 minutes at room temperature (RT), and removal of supernatant in order to remove excessive unbound compound.
As a source of immune cells, frozen peripheral blood mononuclear cells (PBMCs) of a healthy human donor were thawed, resuspended in CGM and placed O/N in a humidified incubator with 5% CO2 at 37° C. to let the cells recover.
The recovered PBMCs were harvested, counted and diluted to a concentration of 10×10^6 cells/mL in CGM, and 50 μL/well (equivalent to 0.5×10^6 cells/well) was added to the Raji cells. […] In all experiments, 1% Phytohemagglutinin (PHA-M, Gibco-ThermoFisher), known as an aspecific activator of immune cells, was also included in a well to serve as a positive control. Samples were incubated for 6 hours in a humidified incubator with 5% CO2 at 37° C. […]

[5] = system: NK cells, CD8+ T-cells, Vδ1 γδ T-cells; assay: Functional assay: activation of other immune cells after co-culture of PBMCs with pretreated Raji cells; type: cell-based, human; conditions: pretreated Raji cells co-cultured with PBMCs; PHA-M added to co-culture
Method: as §1
as §2, with “week. […]” for “week.”
The recovered PBMCs were harvested, counted and diluted to a concentration of 10×10^6 cells/mL in CGM, and 50 μL/well (equivalent to 0.5×10^6 cells/well) was added to the Raji cells. […]

[6] = system: Raji cells; assay: Direct compound-related cell death (CellTiter-Glo, 6 days); type: cell-based, human; conditions: 6 days incubation, positive control
Method: Metabolic activity was assessed after 6 days, using the CellTiter-Glo™ (CTG) luminescent assay kit from Promega Corporation (Madison, WI) according to the manufacturer's instructions. Cell viability was expressed as the percentage survival relative to the average mean of untreated cells or vehicle-treated cells (only growth medium or 1% DMSO) multiplied with 100. The efficacy was calculated by subtracting the bottom of the dose response curve (DRC) from 100%.

[7] = system: Raji cells; assay: Cellular binding to Raji cells (flow cytometry); parameters: species or system human
Method: Raji cells were cultured as described in Example 23. […] After an incubation time of 30 minutes at 4° C., the cells were washed twice with ice-cold FACS buffer. […] After 30 minutes at 4° C., cells were washed twice and resuspended in 150 μL ice-cold FACS buffer. Fluorescence intensities were determined by flow cytometry using the FACSVerse or FACSymphony (BD Biosciences) and indicated as the median fluorescence intensity (MFI). Curves were fitted by nonlinear regression with a variable slope (four parameters) in GraphPad Prism version 9. EC50 values were calculated in GraphPad Prism as the concentration in μg/mL that gives a response halfway between bottom and top of the curve. Binding experiments were performed N=2 or N=3 times.

[8] = biological target: T1, CD20 on Raji cells (CD20-positive Burkitt's Lymphoma human tumor cell line) (human, UniProt P11836 1-297); assay: flow cytometry on CD20-positive Raji cells, APC anti-human IgG F(ab')2 secondary, MFI curve fit; experiment 1 and 2
T1 construct: whole, on cells
T1 sequence (looked up): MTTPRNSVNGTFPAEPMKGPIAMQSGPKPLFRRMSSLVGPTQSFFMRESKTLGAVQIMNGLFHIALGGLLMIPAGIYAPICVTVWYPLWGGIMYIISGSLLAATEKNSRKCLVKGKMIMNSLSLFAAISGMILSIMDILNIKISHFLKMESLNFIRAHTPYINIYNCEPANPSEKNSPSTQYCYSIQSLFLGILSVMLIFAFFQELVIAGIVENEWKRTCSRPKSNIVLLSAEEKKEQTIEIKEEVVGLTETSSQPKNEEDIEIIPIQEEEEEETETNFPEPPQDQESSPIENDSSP

[9] = biological target: T1, CD20 on Raji cells (CD20-positive …); assay: flow cytometry on CD20-positive Raji cells, APC anti-human IgG F(ab')2 secondary, MFI curve fit; experiment 3 and 4
[10] = biological target: T1, CD20 on Raji cells (CD20-positive …); assay: flow cytometry on CD20-positive Raji cells, APC anti-human IgG F(ab')2 secondary, MFI curve fit; experiment 5, 6 and 7

Molecule: C/C(=C\COP(=O)(O)OP(=O)(O)O)CO [HMBPP, (E)-4-Hydroxy-3-methyl-but-2-enyl pyrophosphate]
- activation (degranulation) of Vδ2 γδ T-cells, in words [1]: induced degranulation of Vδ2 γδ T-cells
- activation of Vδ2 γδ T-cells, in words [2]: able to activate Vδ2 γδ T-cells
- Vδ2 γδ T-cell activation, in words [3]: capable of activating Vδ2 γδ T-cells

Molecule: C/C(=C\CCP(=O)(OCOC(=O)C(C)(C)C)OCOC(=O)C(C)(C)C)CO [XC1]
- IFNγ production and degranulation of Vδ2 γδ T-cells compared to pretreatment with HMBPP [4]: more potently induced
- IFNγ production and degranulation (CD107a) of Vδ2 γδ T-cells, in words [4]: dose-dependently induced IFNγ production and degranulation
- activation of other immune cells (NK cells, CD8+ T-cells, Vδ1 γδ T-cells), in words [5]: without inducing direct activation of other immune cells

Molecule: C/C(=C\CCP(=O)(N[C@@H](C)C(=O)OCc1ccccc1)Oc1ccccc1)CO (stereo partly shown) [XD1]
- IFNγ production and degranulation of Vδ2 γδ T-cells compared to pretreatment with HMBPP [4]: more potently induced
- IFNγ production and degranulation (CD107a) of Vδ2 γδ T-cells, in words [4]: dose-dependently induced IFNγ production and degranulation
- activation of other immune cells (NK cells, CD8+ T-cells, Vδ1 γδ T-cells), in words [5]: without inducing direct activation of other immune cells

Molecule: COC(=O)c1cc2c([nH]1)C(=O)C=C1N(C(=O)c3cc4cc(OC)c(OC)c(OC)c4[nH]3)C[C@H]3C[C@]123 [duocarmycin type toxin]
- direct compound related cell death, in words [6]: very effective

Molecule: rituximab: Anti-CD20 monoclonal antibody (MoAb) [reference compound]
- Binding to Raji cells EC50 ([7]; Experiment 1 and 2): 0.6 µg/mL
- Binding to Raji cells EC50 ([7]; Experiment 3 and 4): 1.221 µg/mL
- Binding to Raji cells EC50 ([7]; Experiment 5, 6 and 7): 3.451 µg/mL

B1: rituximab (anti-CD20 monoclonal antibody) (antibody, V domains shown)
VH: QVQLQQPGAELVKPGASVKMSCKASGYTFTSYNMHWVKQTPGRGLEWIGAIYPGNGDTSYNQKFKGKATLTADKSSSTAYMQLSSLTSEDSAVYYCARSTYYGGDWYFNVWGAGTTVTVSA
VL: QIVLSQSPAILSASPGEKVTMTCRASSSVSYIHWFQQKPGSSPKPWIYATSNLASGVPVRFSGSGSGTSYSLTISRVEAEDAATYYCQQWTSNPPTFGGGTKLEIK
- EC50 [8]: 0.6 µg/mL
- EC50 [9]: 1.22 µg/mL
- EC50 [10]: 3.45 µg/mL
